{"source": "patent US20230085945A1", "about": "“ORTHOGONAL SAFETY SWITCHES TO ELIMINATE GENETICALLY ENGINEERED CELLS” (The Board of Trustees of the Leland Stanford Junior …, priority 2020, published 2023)", "key": {"[1]": {"test_system": "undifferentiated NANOG^iCasp9-YFP hPSCs", "experiment": "Viability of undifferentiated NANOG^iCasp9-YFP hPSCs after AP20187 (FACS, alamar blue; dose and time course)", "format": "cell-based, human", "experimental": "FIG. 9: Efficacy of the NANOG^iCasp9-YFP safety switch (related to FIG. 3). A) Undifferentiated NANOG^iCasp9-YFP hPSCs were treated with AP20187 at the indicated concentrations for 24 hours, and then the percentage of viable remaining cells was subsequently analyzed using FACS analysis (left) and alamar blue staining (right). For the FACS analysis, the percentage of cells shown represents viable cells (i.e., DAPI-negative cells obtained after DAPI staining) that were then gated for YFP+ (i.e., NANOG^+) cells. For the alamar blue analysis, wild-type hPSCs were used as a negative control. […] AP20187 doses equal to or greater than 100 nM may prevent efficient killing of NANOG^iCasp9-YFP hPSCs by considerably downregulating NANOG. Gene expression is depicted normalized to the reference gene YWHAZ (i.e., YWHAZ=1.0). C) Undifferentiated NANOG^iCasp9-YFP hPSCs were treated with the indicated doses of AP20187 for various lengths of time (6, 12, 24, 48, 72 hours) and then alamar blue assay was performed immediately thereafter to quantify the extent of cell death. […] D) Immunofluorescent imaging of NANOG^iCasp9-YFP hESCs in the undifferentiated state and after differentiation into day 6 sclerotome as marked by TWIST1 expression, both without and with treatment of cells with 1 nM AP20187 for 24 hours. […] The following marker genes were assessed in each respective cell-type: sclerotome (bone) progenitors (TWIST1, SOX9, PAX1, PAX9), liver progenitors (SOX17, HNF4A, AFP, TBX3), and forebrain (neural) progenitors (PAX6, FOXG1, OTX2, SIX3). F) Further validation of NANOG^iCasp9-YFP using a simulated mixed cell culture assay. NANOG^iCasp9-YFP undifferentiated hPSCs and hPSC-derived derived sclerotome cells were mixed at a 3:7 ratio, respectively. Mixed cells were treated with AP20187, and 24 hours post-treatment, FACS analysis was done to assess remaining NANOG^iCasp9-YFP hPSCs in culture.\nAlamar Blue proliferation assay—hESCs were cultured in mTeSR1 (in the presence or absence of AP20187 at the indicated concentrations). After 24 hours of AP20187 treatment, mTeSR1 media with Alamar Blue (concentration based on manufacturer's protocol) was changed for both untreated and treated samples. A control well containing media+Alamar Blue was used to assess blank wells and to therefore to measure and subtract fluorescence noise.\nFlow cytometric quantification of viable cells—NANOG^iCasp9-YFP hESCs were dissociated into single cells with Accutase and 1×10^6 cells were plated per well in a 6-well plate pre-coated with Matrigel. […] Subsequently, to quantify the percentage of surviving cells, the cultures were dissociated with TrypLE Express. […] YFP^+ (i.e., NANOG^+) cells were analyzed (Beckman Coulter CytoFlex Analyzer) to count live cells for both untreated and AP20187-treated groups. […]"}, "[2]": {"test_system": "undifferentiated NANOG^iCasp9-YFP hPSCs", "experiment": "Clonal assay for surviving hPSC colonies after AP20187 treatment", "format": "cell-based, human", "conditions": "1 nM AP20, 24-hour treatment; across 7 independent experiments", "experimental": "FIG. 3: Implementation of the NANOG^iCasp9-YFP safety switch. A) Schema depicting how drug AP20187 induces dimerization of Caspase9 in undifferentiated NANOG^iCasp9-YFP hESCs, subsequently triggering cell death (top left). NANOG^iCasp9-YFP hESCs were treated for 24 hours with increasing concentrations of AP20187. AP20187 was withdrawn, and cultures were further grown in mTeSR1 to allow any surviving hESCs to grow; any surviving colonies were counted 1 week later (top right). Alkaline phosphatase staining of whole wells of a 12-well plate after 24-hour treatment with AP20187 (bottom). […] Bioluminescent imaging of mice occurred weekly for 5 weeks with no transplant control (NTC) animals included for relative luminescence normalization. Total flux (photons/sec) was measured for each animal and averaged. […] The percentage of surviving cells was calculated relative to untreated controls. […]\nClonal assay for surviving hPSC colonies—hPSCs were dissociated into single cells with Accutase (Thermo Fisher) and 1×10^6 cells were plated per well of a 6-well plate that was pre-coated with Matrigel. […] Subsequently, AP20187 was withdrawn altogether and hPSCs were cultured with mTeSR1 for 1 week, to allow any surviving hPSCs to regrow and to form clonal colonies, which were then scored (i.e., 1 surviving colony after AP20187 treatment of 1×10^6 hPSCs indicated survival of 1 out of 10^6 cells). […]"}}, "data": [{"compound": "CC[C@H](C(=O)N1CCCC[C@H]1C(=O)O[C@H](CCc1ccc(OC)c(OC)c1)c1cccc(OCC(=O)NCC(CNC(=O)COc2cccc([C@@H](CCc3ccc(OC)c(OC)c3)OC(=O)[C@@H]3CCCCN3C(=O)[C@@H](CC)c3cc(OC)c(OC)c(OC)c3)c2)CN(C)C)c1)c1cc(OC)c(OC)c(OC)c1", "note": "[AP20]", "values": [{"measurement": "concentration that activates the NANOG^iCasp9-YFP system", "setting": "[1]", "value": 1, "unit": "nM"}, {"measurement": "duration of treatment that sufficed to eliminate hESCs", "setting": "[1]", "value": 12, "unit": "h"}, {"measurement": "time to activity / cell death", "setting": "[1]; 1 nM AP20187", "value": "≤ 12", "unit": "h"}, {"measurement": "IC50", "setting": "[1]; undifferentiated NANOG^iCasp9-YFP hPSCs", "value": 0.065, "unit": "nM"}, {"measurement": "depletion of undifferentiated hPSCs", "setting": "[2]", "value": "1.75×10^6 fold"}]}]}
